Data as given in patent publication US9457031B2, “Antibacterial protein kinase inhibitors” (priority 2012, dated 2016).

Key:
M. tb [1] = format: cell-based, Mycobacterium tuberculosis; settings: 5 μM concentration against M. tb during 72 h; FIGS. 4a and 4b
M. smegmatis = format: cell-based; settings: compared to the parent OSU-03012 and the other derivatives; FIG. 1
M. tb [2] = experiment: colony-forming unit (CFU) assay to determine bacterial survival; format: cell-based, Mycobacterium tuberculosis; settings: compared to the parent OSU-03012 and the other derivatives; FIG. 1

| SMILES | in vitro antimycobacterial activity upon screening of cpd2-24 derivatives (M. tb [1]) | killing of M. smegmatis (bacterial survival, CFU) (M. smegmatis) | killing of M. tb (bacterial survival, CFU) (M. tb [2]) |
| --- | --- | --- | --- |
| CNC(=O)CCc1cc(-c2ccc(-c3ccc(C(F)(F)F)cc3)cc2)n(-c2ccc(NC(=O)N3CCOCC3)cc2)n1 [cpd2-24-3, N-(4-(3-(3-(methylamino)-3-oxopropyl)-5-(4′-(trifluoromethyl)-[1,1′-biphenyl]-4-yl)-1H-pyrazol-1-yl)phenyl)morpholine-4-carboxamide] | particularly effective |  |  |
| CNC(=O)CCc1cc(-c2ccc(-c3ccc(C(F)(F)F)cc3)cc2)n(-c2ccc(NC(=O)c3ccncc3)cc2)n1 [cpd2-24-5, N-(4-(3-(3-(methylamino)-3-oxopropyl)-5-(4′-(trifluoromethyl)-[1,1′-biphenyl]-4-yl)-1H-pyrazol-1-yl)phenyl)isonicotinamide] | particularly effective |  |  |
| CNC(=O)CCc1cc(-c2ccc(-c3ccc(C(F)(F)F)cc3)cc2)n(-c2ccc(NC(=O)c3ccccn3)cc2)n1 [cpd2-24-6, N-(4-(3-(3-(methylamino)-3-oxopropyl)-5-(4′-(trifluoromethyl)-[1,1′-biphenyl]-4-yl)-1H-pyrazol-1-yl)phenyl)picolinamide] | particularly effective |  |  |
| CNC(=O)CCc1cc(-c2ccc(-c3ccc(C(F)(F)F)cc3)cc2)n(-c2ccc(NC(=O)c3cccnc3)cc2)n1 [cpd2-24-7, N-(4-(3-(3-(methylamino)-3-oxopropyl)-5-(4′-(trifluoromethyl)-[1,1′-biphenyl]-4-yl)-1H-pyrazol-1-yl)phenyl)nicotinamide] | particularly effective |  |  |
| NS(=O)(=O)Nc1ccc(-n2nc(C(F)(F)F)cc2-c2ccc3c(ccc4ccccc43)c2)cc1 [cpd-2] |  | significantly kill | significantly kill |
